Test results published in patent US11472758B2, “Methods for obtaining compounds from a plant or fungus material, respective compositions, and uses thereof” (Real Isolates, LLC, priority 2020, dated 2022).

Key:
volunteer with HNPP = assay: Human trial of HCD or MCD for hereditary neuropathy with liability to pressure palsy (HNPP); format: in vivo
Experimental: A volunteer has a rare genetic disorder, HNPP, resulting in neuropathic pain, muscle weakness, numbness, and loss of fine motor skills. The volunteer previously needed high doses (more than 5 g/day) of medical Cannabis to receive beneficial effects, but reduced overall intake when they began taking HCD and MCD. Their current dose schedule is 15-30 mg of HCD per day (˜7 mg-15 mg CBD) and MCD as needed. They are not taking any other medication.

[1] = system: volunteer with severe Crohn's disease; assay: Human trial of HCD or MCD for Crohn's disease; format: in vivo
From the text: A volunteer with severe Crohn's disease and who has had over 50 hospital emergency visits since diagnosis in 2015. Treatment with multiple pharmaceutical agents were unsuccessful. They stopped using all pharmaceutical agents in 2018. In August 2020, they began using HCD and MCD. They were able to completely stop a Crohn's disease flare in November 2020 using two consecutive doses of MCD.

[2] = system: volunteer with severe, chronic migraines; assay: Human trial of HCD or MCD for chronic migraine; format: in vivo
[3] = system: volunteer with a developmental disorder; assay: Human trial of HCD or MCD for autism spectrum/schizophrenia spectrum disorder; format: in vivo
From the text: An assigned person at birth nonbinary volunteer with a history of a developmental disorder whose symptoms span both Autism Spectrum Disorder and Schizophrenia Spectrum Disorder. They stopped taking all psychopharmaceutical agents in 2010 after beginning to use medical Cannabis daily. Outside of 3 relapses due to over 14+ days without Cannabis, they have had no issues managing their symptoms since. Due to decreased symptoms, they are highly functional, fully independent, and no longer meet criteria for their previous diagnoses. In August 2020, they began using the HCD and MCD. They have not missed a single dose of HCD in 5 months; it is their longest span of completely continuous compliance.

CB1R [4] = molecular target: T1, CB1R (Homo sapiens, UniProt P21554); settings: known; cited from earlier work
CB2R [5] = molecular target: T2, CB2R (Homo sapiens, UniProt P34972); settings: known; cited from earlier work
mice = settings: cited from earlier work
[6] = has been shown; cited from earlier work
CB1R [7] = settings: performed similarly to THC, but at a lower potency; cited from earlier work
15-lipoxygenase (15-LOX) = settings: has been shown; cited from earlier work
CB1R [8] = molecular target: T1, CB1R; parameters: host or cells: brain synaptosomal samples; COS-7 over-expression; settings: brain synaptosomal samples; COS-7 over-expression model; cited from earlier work
CB2R [9] = molecular target: T2, CB2R; parameters: host or cells: brain synaptosomal samples; COS-7 over-expression; settings: brain synaptosomal samples; COS-7 over-expression model; cited from earlier work
[10] = smoking/inhalation at 575-600° F., 25 mg CBD isolate
[11] = smoking/inhalation at 575-600° F., 7 mg CBD isolate

T2 sequence (P34972 whole entry): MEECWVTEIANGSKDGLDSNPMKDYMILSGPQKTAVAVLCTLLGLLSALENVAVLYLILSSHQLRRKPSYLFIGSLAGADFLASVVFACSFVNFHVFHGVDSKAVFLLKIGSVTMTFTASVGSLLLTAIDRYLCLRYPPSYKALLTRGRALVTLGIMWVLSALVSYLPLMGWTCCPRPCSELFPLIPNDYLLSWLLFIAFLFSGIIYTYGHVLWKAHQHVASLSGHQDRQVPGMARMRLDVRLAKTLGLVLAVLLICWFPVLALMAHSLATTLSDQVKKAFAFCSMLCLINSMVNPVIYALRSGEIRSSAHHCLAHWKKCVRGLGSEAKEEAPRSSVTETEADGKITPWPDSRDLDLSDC
T1 sequence (P21554 whole entry): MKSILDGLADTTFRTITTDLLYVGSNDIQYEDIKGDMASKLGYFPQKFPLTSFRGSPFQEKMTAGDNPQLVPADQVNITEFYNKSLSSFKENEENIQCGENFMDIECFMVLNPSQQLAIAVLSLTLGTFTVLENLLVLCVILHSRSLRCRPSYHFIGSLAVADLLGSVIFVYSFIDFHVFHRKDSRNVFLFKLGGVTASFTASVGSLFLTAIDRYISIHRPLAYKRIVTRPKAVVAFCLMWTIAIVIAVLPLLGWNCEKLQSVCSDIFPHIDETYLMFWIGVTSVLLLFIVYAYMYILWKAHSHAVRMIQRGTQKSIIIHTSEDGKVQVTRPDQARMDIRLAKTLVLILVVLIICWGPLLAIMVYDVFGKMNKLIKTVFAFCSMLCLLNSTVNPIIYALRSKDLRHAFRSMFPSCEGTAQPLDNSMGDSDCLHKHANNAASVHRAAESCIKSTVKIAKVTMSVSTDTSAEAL

C=C(C)[C@@H]1CCC(C)=C[C@H]1c1c(O)cc(CCCCC)cc1O [CBD, cannabidiol]
Effect after oral administration (volunteer with HNPP; oral, 15-30 mg HCD or same dose of commercially available CBD isolate): no noticeable effect | Time at which effects began to wear off (volunteer with HNPP; [10]): 45 min | Time at which no noticeable effects remained (volunteer with HNPP; [10]): 60 min | Time at which pain relief began (volunteer with HNPP; [10]): 10 min | Oral dose needed to achieve results similar to 15 mg HCD ([1]; commercially available CBD isolate, two or more consecutive days): over 50 mg | Time at which effects began to wear off [1, 11]: 45 min | Time at which no noticeable effects remained [1, 11]: 60 min | Time of decreased pain, stress, and anxiety [1, 11]: 15 min | Effect on migraines ([2]; commercial CBD isolate 50 mg/day titrated up to 250 mg/day, after two months): marked decrease in the number and severity of migraines | Oral dose needed to achieve results similar to 15 mg HCD ([2]; commercially available CBD isolate, anxiety, migraine threshold, migraine severity): over 200 mg | After effect observed the next day ([3]; 400-600 mg commercially available CBD isolate): “hangover” | Negative side effects ([3]; doses of 50 mg/day of CBD): forgetfulness/brain fog, apathy, decreased endurance, decreased strength, interrupted sleep routine | Dose used to abort panic attacks and/or break perseverative loops ([3]; oral, same efficacy): 400 to 600 mg | Potency compared to orally ingested hemp Cannabis distillate (times less potent) ([3]; orally ingested, Example 20): at least 10 times | Activity at CB1R (CB1R [4]): neutral antagonist activity at nanomolar concentrations | Activity at CB2R (CB2R [5]): neutral antagonist activity at nanomolar concentrations

CCCCCc1cc(O)c2c(c1)OC(C)(C)c1ccc(C)cc1-2 [CBN, cannabinol]
Pentobarbital-induced sleeping time (mice): double

CCCCCc1cc(O)c2c(c1)OC(C)(C)[C@@H]1CCC(C)=C[C@@H]21 [THC, Δ9-tetrahydrocannabinol]
Activity at CB2R (CB2R [5]): partial agonist activity at nanomolar concentrations

C=C1CC[C@@H]2[C@@H](C1)c1c(O)cc(CCCCC)cc1OC2(C)C [exo-tetrahydrocannabinol]
Antibacterial activity [6]: potent antibacterial activity | Interaction with CB1R (CB1R [4]): interact with CB1R | Activity in drug discrimination trials (CB1R [7]): partial agonist activity

C=C(C)[C@@H]1CCC(C)=C[C@H]1c1c(O)cc(CCCCC)cc1OC [omCBD, o-methylcannabidiol]
15-LOX inhibition (15-lipoxygenase (15-LOX)): selective and potent

CCCCCc1cc(OC)c2c(c1)OC(C)(C)c1ccc(C)cc1-2 [omCBN, o-methylcannabinol]
Potency at CB1 receptor relative to CBN (CB1R [8]): vastly increase its potency | Potency at CB2 receptor relative to CBN (CB2R [9]): vastly increase its potency

CCCCCOc1cc(CCCCC)cc2c1-c1cc(C)ccc1C(C)(C)O2 [opeCBN, o-pentylcannabinol]
Potency at CB1 receptor relative to CBN (CB1R [8]): vastly increase its potency | Potency at CB2 receptor relative to CBN (CB2R [9]): vastly increase its potency

CCCCCc1cc(OCCC)c2c(c1)OC(C)(C)c1ccc(C)cc1-2 [oprCBN, o-propylcannabinol]
Potency at CB1 receptor relative to CBN (CB1R [8]): vastly increase its potency | Potency at CB2 receptor relative to CBN (CB2R [9]): vastly increase its potency

CCCCCc1cc(O)c2c(c1)OC(C)(C)C1CCC(C)C=C21 (centres unmarked) [Δ10-Tetrahydrocannabinol, Δ10-tetrahydrocannabinol]
Interaction with CB1R (CB1R [4]): interact with CB1R
